The nature of data set [1]: Metabolic stability in (human) liver microsomes. To be noted: pH 7.4.
The next data set has as its target Human GLP-1R (Homo sapiens, UniProt P43220). Put plainly: GLP-1R agonist activity, HTRF cAMP detection in 293A GFP-GLP-1R cells. Set-up: Emax: dose or concentration left out as unconfirmed. Background: TR-FRET usually uses a lanthanide donor and a delayed reading to cut background.
A further data set deals with hERG potassium channels (Homo sapiens, UniProt Q12809). In words: Inhibition of hERG potassium channels, whole-cell patch clamp in HEK-293-hERG cells. (The hERG channel carries a current that helps repolarise heart muscle cells.)
Sequence of hERG potassium channels (Q12809 whole entry): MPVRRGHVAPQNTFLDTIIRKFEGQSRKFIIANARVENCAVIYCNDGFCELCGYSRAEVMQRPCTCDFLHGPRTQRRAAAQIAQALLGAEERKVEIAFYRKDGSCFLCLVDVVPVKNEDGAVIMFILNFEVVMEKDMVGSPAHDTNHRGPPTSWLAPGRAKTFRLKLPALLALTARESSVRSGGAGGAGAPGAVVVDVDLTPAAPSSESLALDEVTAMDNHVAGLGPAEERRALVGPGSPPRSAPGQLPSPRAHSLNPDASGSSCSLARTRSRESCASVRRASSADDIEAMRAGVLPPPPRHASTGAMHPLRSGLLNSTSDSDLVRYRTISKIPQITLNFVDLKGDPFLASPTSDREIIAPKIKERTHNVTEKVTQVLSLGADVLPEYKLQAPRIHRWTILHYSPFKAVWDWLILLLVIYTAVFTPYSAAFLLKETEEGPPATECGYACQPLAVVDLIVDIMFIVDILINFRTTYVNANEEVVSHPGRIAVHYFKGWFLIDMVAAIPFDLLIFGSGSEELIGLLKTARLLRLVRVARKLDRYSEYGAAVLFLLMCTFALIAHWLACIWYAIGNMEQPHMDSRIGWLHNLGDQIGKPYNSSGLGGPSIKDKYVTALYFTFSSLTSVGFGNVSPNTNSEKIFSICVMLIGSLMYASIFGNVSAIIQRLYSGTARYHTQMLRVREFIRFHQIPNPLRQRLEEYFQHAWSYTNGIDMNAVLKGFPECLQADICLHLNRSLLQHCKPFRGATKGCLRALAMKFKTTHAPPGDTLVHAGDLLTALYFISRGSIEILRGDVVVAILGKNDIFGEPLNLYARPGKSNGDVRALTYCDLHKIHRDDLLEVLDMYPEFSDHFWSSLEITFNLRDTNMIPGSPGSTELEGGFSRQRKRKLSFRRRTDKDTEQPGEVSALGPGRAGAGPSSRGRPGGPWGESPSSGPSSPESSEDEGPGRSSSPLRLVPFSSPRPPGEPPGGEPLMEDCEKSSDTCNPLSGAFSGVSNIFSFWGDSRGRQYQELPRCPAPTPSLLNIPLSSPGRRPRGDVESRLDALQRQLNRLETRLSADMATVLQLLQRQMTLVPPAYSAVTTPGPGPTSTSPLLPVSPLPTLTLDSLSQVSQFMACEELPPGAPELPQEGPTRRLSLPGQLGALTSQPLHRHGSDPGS

This note sets out measurements from patent publication US12668587B2, “Benzimidazolone GLP-1 receptor agonist and use thereof” (HANGZHOU ZHONGMEIHUADONG PHARMACEUTICAL CO., LTD., priority 2020, dated 2026).

Sequence of Human GLP-1R (P43220 24-463): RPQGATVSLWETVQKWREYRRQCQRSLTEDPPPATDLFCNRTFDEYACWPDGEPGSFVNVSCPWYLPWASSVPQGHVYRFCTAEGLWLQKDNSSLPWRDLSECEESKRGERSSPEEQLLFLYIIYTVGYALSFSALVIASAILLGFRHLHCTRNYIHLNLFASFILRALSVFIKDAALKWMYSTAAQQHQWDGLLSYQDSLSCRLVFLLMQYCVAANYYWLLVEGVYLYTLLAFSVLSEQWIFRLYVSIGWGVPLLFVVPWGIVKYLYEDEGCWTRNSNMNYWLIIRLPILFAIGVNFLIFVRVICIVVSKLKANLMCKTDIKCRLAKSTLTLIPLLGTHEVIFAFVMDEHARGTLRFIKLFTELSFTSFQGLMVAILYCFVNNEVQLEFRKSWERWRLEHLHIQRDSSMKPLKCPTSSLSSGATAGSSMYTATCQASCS
Method for Human GLP-1R: GLP-1R-mediated agonist activity was determined by cell-based assays using a homogeneous time-resolved fluorescence (i.e., HTRF)-based cAMP detection kit, which measures the level of cAMP in cells. The method was a competitive immunoassay. It enabled direct pharmacological characterization of compounds acting on Gs-coupled receptors in adherent or suspending cells.
The standard curve of native cAMP or unlabeled cAMP produced by cells competed with d2-labeled cAMP red receptors to bind monoclonal anti-cAMP Eu3+ cryptate donors, and the specific signal was inversely proportional to the concentration of cAMP in standard or tested samples.
Human GLP-1R encoding sequence (NCBI reference sequence NP_002053.3) was subcloned into pEGFP-N1 (tsingke), and the cell line stably expressing the receptor was isolated. The expression density of GLP-1R was confirmed by the expression of GFP observed under a fluorescence microscope.
Cells were collected from a T25 tissue culture flask and centrifuged at room temperature at 1000 rpm for 5 minutes. The cell precipitates were then re-suspended in 1 mL of the stimulating buffer. 20 μL sample of cell suspension was counted on a counter STAR IC 1000 to determine the cell viability and the cell count per mL. The remaining cell suspension was then regulated with the stimulating buffer to deliver 2000 living cells per well using a multi-channel pipette. 5 μL of the cell suspension was added to each well of the plate which already contained the compound. The plate was sealed and incubated at 37° C. with 5% CO2 for 30 minutes.
After 30 minutes of incubation, 5 μL of d2-labeled cAMP and 5 μL of anti-cAMP cryptate (both 1: 20 diluted in the cell lysis buffer) were added to each well of the plate. The plate was then incubated at room temperature for 60 minutes, and the changes of HTRF signal were read with Tecan Spark reader: absorbance values at 340 nm (excitation)/at 615 nm and 665 nm (emission). Raw data were converted into nM cAMP by interpolation from the cAMP standard curve, and the effect in percentage was determined relative to the saturated concentration of the complete agonist GLP-17˜37 (400 nM) contained in each plate. Determination of EC50 was performed based on the agonist dose-response curve, which was analyzed using a four-parameter logical dose-response equation with a curve fitting program.
The test data presented the results in the form of a geometric mean (EC50s) based on the number of repetition times.

As a reminder, the half-life is the time needed for the level to fall by half in the phase considered. A word on the EC50: it is the concentration giving half of the maximal effect. In general, Emax refers to the maximal effect, on the per cent scale that the assay sets. On to `O=C(O)c1ccc2nc(CN3CC=C(c4cccc(OCc5ccc(C(=O)C6CC6)cc5F)n4)CC3)n(C[C@@H]3CCO3)c2c1` [Compound 22, (S)-2-((6-((4-(cyclopropanecarbonyl)-2-fluorobenzyl)oxy)-3′,6′-dihydro-[2,4′-bipyridin]-1′(2′H)-yl)methyl)-1-(oxetan-2-ylmethyl)-1H-benzo[d]imidazole-6-carboxylic acid], for which, in data set [1], the half-life at 1 μM was determined as 1 h. Besides, the concentration giving a half-maximal response (EC50) on Human GLP-1R turned out to be 2.07 nM. On Human GLP-1R (293A), this compound came in with a maximum response (Emax) of 83.4%. In addition, the “hERG (IR)” value on hERG potassium channels (inhibition rate of hERG tail current at 1 μM) is listed as 0.92%; on hERG potassium channels (inhibition rate of hERG tail current at 10 μM), 23.50%.
